SMILES strings stand for the structures. Some results are limits rather than exact numbers.

In general, IC50 refers to the concentration that inhibits the measured activity by half.

Sequence of ROCK2 (O75116 whole entry, species assumed): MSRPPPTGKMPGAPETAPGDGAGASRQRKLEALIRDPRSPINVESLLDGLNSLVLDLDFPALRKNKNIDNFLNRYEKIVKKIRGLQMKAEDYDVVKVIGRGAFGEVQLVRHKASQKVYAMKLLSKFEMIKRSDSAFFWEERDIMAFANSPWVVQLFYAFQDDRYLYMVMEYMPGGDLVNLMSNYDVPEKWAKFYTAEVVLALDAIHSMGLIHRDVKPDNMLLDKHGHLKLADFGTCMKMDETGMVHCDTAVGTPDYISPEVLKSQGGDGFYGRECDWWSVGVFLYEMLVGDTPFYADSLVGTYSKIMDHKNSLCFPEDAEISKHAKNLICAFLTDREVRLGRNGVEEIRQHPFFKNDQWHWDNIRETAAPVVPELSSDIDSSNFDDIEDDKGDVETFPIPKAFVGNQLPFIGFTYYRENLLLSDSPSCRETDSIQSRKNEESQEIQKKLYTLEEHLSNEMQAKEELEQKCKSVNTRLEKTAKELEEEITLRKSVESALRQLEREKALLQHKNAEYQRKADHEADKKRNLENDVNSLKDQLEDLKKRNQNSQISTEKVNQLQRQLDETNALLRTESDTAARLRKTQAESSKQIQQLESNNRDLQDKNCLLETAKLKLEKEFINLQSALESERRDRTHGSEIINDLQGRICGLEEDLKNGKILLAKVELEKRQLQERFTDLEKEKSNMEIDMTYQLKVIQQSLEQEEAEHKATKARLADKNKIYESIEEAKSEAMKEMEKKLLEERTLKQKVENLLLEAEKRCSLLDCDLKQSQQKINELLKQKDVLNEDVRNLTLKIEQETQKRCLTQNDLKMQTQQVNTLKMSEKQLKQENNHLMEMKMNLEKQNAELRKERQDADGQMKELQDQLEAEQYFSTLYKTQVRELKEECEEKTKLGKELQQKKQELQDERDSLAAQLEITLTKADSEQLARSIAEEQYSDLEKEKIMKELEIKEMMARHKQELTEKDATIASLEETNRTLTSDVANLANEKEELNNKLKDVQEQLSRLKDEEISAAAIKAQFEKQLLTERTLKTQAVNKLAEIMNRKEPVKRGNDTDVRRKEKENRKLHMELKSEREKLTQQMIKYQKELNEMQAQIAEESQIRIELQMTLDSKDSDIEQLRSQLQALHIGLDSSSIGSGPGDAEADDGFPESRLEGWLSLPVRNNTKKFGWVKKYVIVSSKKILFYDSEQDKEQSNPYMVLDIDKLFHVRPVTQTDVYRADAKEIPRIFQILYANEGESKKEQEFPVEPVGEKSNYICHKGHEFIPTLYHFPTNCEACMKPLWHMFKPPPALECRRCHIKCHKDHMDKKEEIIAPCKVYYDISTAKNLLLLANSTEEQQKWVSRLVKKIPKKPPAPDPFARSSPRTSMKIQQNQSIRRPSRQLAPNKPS

This assay concerns the target ROCK2 (Homo sapiens (Human), UniProt O75116). Kind of assay: ROCK2 assay (peptide phosphorylation, LABCHIP 3000 Reader). It counts as biochemical. The conditions noted are these: 5 μM ATP, 1.5 μM peptide substrate. The procedure:
The effectiveness of compounds of the present invention as ROCK inhibitors can be determined in a 30 μL, assay containing 20 mM HEPES, pH 7.5, 20 mM MgCl2, 0.015% Brij-35, 4 mM DTT, 5 μM ATP and 1.5 μM peptide substrate (FITC-AHA-AKRRRLSSLRA-OH). Compounds were dissolved in DMSO so that the final concentration of DMSO was <2%, and the reaction was initiated with Rho kinase variants. After incubation, the reaction was terminated by the addition of EDTA and the phosphorylated and non-phosphorylated peptides separated using a LABCHIP® 3000 Reader (Caliper Life Sciences). […] Compounds were tested in dose-response format, and the inhibition of kinase activity was calculated at each concentration of compound. The inhibition data were fit using a curve-fitting program to determine the IC50; i.e., the concentration of compound required to inhibit 50% of kinase activity.
Representative Examples were tested in the ROCK2 assay described above and found having ROCK2 inhibitory activity.
Take `COc1cc(Cn2cnn(-c3ccc(-c4cn[nH]c4)cc3)c2=O)cc(OC)c1` [Example 49, 1-(4-(1H-pyrazol-4-yl)phenyl)-4-(3,5-dimethoxybenzyl)-1H-1,2,4-triazol-5(4H)-one]: the IC50 was 250 to 2000 nM.
`CCc1cc(-n2nc(C)n(Cc3cc(F)cc(F)c3)c2=O)ccc1-c1cn[nH]c1` [Example 108, 4-(3,5-difluorobenzyl)-1-(3-ethyl-4-(1H-pyrazol-4-yl)phenyl)-3-methyl-1H-1,2,4-triazol-5(4H)-one] had a concentration for half-maximal inhibition (IC50) of 5 to 50 nM.
Take `COc1cc(-n2nc(C)n(Cc3ccc(F)cc3)c2=O)ccc1-c1cn[nH]c1` [Example 101, 4-(4-fluorobenzyl)-1-(3-methoxy-4-(1H-pyrazol-4-yl)phenyl)-3-methyl-1H-1,2,4-triazol-5(4H)-one]: the IC50 was 5 to 50 nM.
Compound `COc1cc(Cn2c(C)nn(-c3ccc(-c4cn[nH]c4)cc3)c2=O)ccc1F` [Example 121, 1-(4-(1H-pyrazol-4-yl)phenyl)-4-(4-fluoro-3-methoxybenzyl)-3-methyl-1H-1,2,4-triazol-5(4H)-one] yielded an IC50 of under 5 nM.
Next, `O=c1n(-c2ccc(-c3cn[nH]c3)cc2)cnn1Cc1ccccc1` [Example 2, 4-(4-(1H-pyrazol-4-yl)phenyl)-1-benzyl-1H-1,2,4-triazol-5(4H)-one]: 50 to 250 nM.
Compound `Cc1nn(-c2ccc(-c3cn[nH]c3)cc2)c(=O)n1C(C)c1ccccc1` (stereo not drawn) [Example 84, 1-(4-(1H-pyrazol-4-yl)phenyl)-3-methyl-4-(1-phenylethyl)-1H-1,2,4-triazol-5(4H)-one] displayed an IC50 of 50 to 250 nM.
Next, `O=c1n(Cc2cc(F)ccc2F)cnn1-c1ccc(-c2cn[nH]c2)cc1` [Example 20, 1-(4-(1H-pyrazol-4-yl)phenyl)-4-(2,5-difluorobenzyl)-1H-1,2,4-triazol-5(4H)-one]: 5 to 50 nM; `Cc1nn(-c2ccc(-c3cn[nH]c3)cc2)c(=O)n1Cc1c(F)cccc1F` [Example 104, 1-(4-(1H-pyrazol-4-yl)phenyl)-4-(2,6-difluorobenzyl)-3-methyl-1H-1,2,4-triazol-5(4H)-one]: 50 to 250 nM.
In turn, `COc1cc(-n2nnn(Cc3c(F)cccc3F)c2=O)ccc1-c1cn[nH]c1` [Example 184, 1-(2,6-difluorobenzyl)-4-(3-methoxy-4-(1H-pyrazol-4-yl)phenyl)-1H-tetrazol-5(4H)-one] displayed an IC50 of 50 to 250 nM.
For `COc1cc(F)cc(Cn2nnn(-c3ccc(-c4cn[nH]c4)cc3)c2=O)c1` [Example 175, 1-(4-(1H-pyrazol-4-yl)phenyl)-4-(3-fluoro-5-methoxybenzyl)-1H-tetrazol-5(4H)-one], the IC50 was in the range of 5 to 50 nM.
`COc1cc(-c2cn[nH]c2)ccc1-n1cnn(Cc2ccccc2)c1=O` [Example 10, 1-benzyl-4-(2-methoxy-4-(1H-pyrazol-4-yl)phenyl)-1H-1,2,4-triazol-5(4H)-one] had an IC50 of 250 to 2000 nM.
Turning to `COc1ccc(F)cc1Cn1c(CO)nn(-c2ccc(-c3cn[nH]c3)cc2)c1=O` [Example 157, 1-(4-(1H-pyrazol-4-yl)phenyl)-4-(5-fluoro-2-methoxybenzyl)-3-(hydroxymethyl)-1H-1,2,4-triazol-5(4H)-one], the half-maximal inhibitory concentration (IC50) is 50 to 250 nM.
Consider `CC(C)(O)c1nn(-c2ccc(-c3cn[nH]c3)cc2)c(=O)n1Cc1ccccc1` [Example 133, 1-(4-(1H-pyrazol-4-yl)phenyl)-4-benzyl-3-(2-hydroxypropan-2-yl)-1H-1,2,4-triazol-5(4H)-one], for which the IC50 lay within 5 to 50 nM.
Compound `Cc1nn(C(C)c2ccccc2)c(=O)n1-c1ccc(-c2cn[nH]c2)cc1` (stereo not drawn) [Example 73, 4-(4-(1H-pyrazol-4-yl)phenyl)-3-methyl-1-(1-phenylethyl)-1H-1,2,4-triazol-5(4H)-one] displayed an IC50 of 250 to 2000 nM.
In the case of `COc1cc(Cn2c(C(C)O)nn(-c3ccc(-c4cn[nH]c4)cc3)c2=O)cc(OC)c1` (single isomer, unassigned) [Example 147, 1-(4-(1H-pyrazol-4-yl)phenyl)-4-(3,5-dimethoxybenzyl)-3-(1-hydroxyethyl)-1H-1,2,4-triazol-5(4H)-one] it was 50 to 250 nM; in that of `COc1cc(-n2cnn(C(C)c3ccccc3)c2=O)ccc1-c1cn[nH]c1` (stereo not drawn) [Example 8, 4-(3-methoxy-4-(1H-pyrazol-4-yl)phenyl)-1-(1-phenylethyl)-1H-1,2,4-triazol-5(4H)-one], 250 to 2000 nM.
In turn, `COc1cc(-c2cn[nH]c2)ccc1-n1c(C)nn(Cc2ccccc2)c1=O` [Example 63, 1-benzyl-4-(2-methoxy-4-(1H-pyrazol-4-yl)phenyl)-3-methyl-1H-1,2,4-triazol-5(4H)-one] registered an IC50 of 250 to 2000 nM.
In turn, `COc1cc(F)cc(Cn2c(CN3CCNCC3)nn(-c3ccc(-c4cn[nH]c4)cc3)c2=O)c1` [Example 152, 1-(4-(1H-pyrazol-4-yl)phenyl)-4-(3-fluoro-5-methoxybenzyl)-3-(piperazin-1-ylmethyl)-1H-1,2,4-triazol-5(4H)-one] yielded an IC50 of 5 to 50 nM.
Next, `COc1cc(F)cc(Cn2c(CO)nn(-c3ccc(-c4cn[nH]c4)cc3)c2=O)c1` [Example 144, 1-(4-(1H-pyrazol-4-yl)phenyl)-4-(3-fluoro-5-methoxybenzyl)-3-(hydroxymethyl)-1H-1,2,4-triazol-5(4H)-one]: under 5 nM; `COc1ccc(Cn2c(CO)nn(-c3ccc(-c4cn[nH]c4)cc3)c2=O)cc1F` [Example 159, 1-(4-(1H-pyrazol-4-yl)phenyl)-4-(3-fluoro-4-methoxybenzyl)-3-(hydroxymethyl)-1H-1,2,4-triazol-5(4H)-one]: 250 to 2000 nM; `COc1cccc(Cn2c(CN3CCC(O)C3)nn(-c3ccc(-c4cn[nH]c4)cc3)c2=O)c1` (stereo not drawn) [Example 156, 1-(4-(1H-pyrazol-4-yl)phenyl)-3-((3-hydroxypyrrolidin-1-yl)methyl)-4-(3-methoxybenzyl)-1H-1,2,4-triazol-5(4H)-one]: 5 to 50 nM.
Compound `CC(O)c1nn(-c2ccc(-c3cn[nH]c3)cc2)c(=O)n1Cc1ccccc1` (single isomer, unassigned) [Example 140, 1-(4-(1H-pyrazol-4-yl)phenyl)-4-benzyl-3-(1-hydroxyethyl)-1H-1,2,4-triazol-5(4H)-one] had an IC50 of 5 to 50 nM.
In the case of `COc1cc(-n2ncn(Cc3cc(F)cc(F)c3)c2=O)ccc1-c1cn[nH]c1` [Example 36, 4-(3,5-difluorobenzyl)-1-(3-methoxy-4-(1H-pyrazol-4-yl)phenyl)-1H-1,2,4-triazol-5(4H)-one] it was 5 to 50 nM; in that of `COc1cc(F)cc(Cn2cnn(-c3ccc(-c4cn[nH]c4)c(OC)c3)c2=O)c1` [Example 26, 4-(3-fluoro-5-methoxybenzyl)-1-(3-methoxy-4-(1H-pyrazol-4-yl)phenyl)-1H-1,2,4-triazol-5(4H)-one], under 5 nM; in that of `COc1cc(-n2ncn(Cc3ccc(F)cc3)c2=O)ccc1-c1cn[nH]c1` [Example 38, 4-(4-fluorobenzyl)-1-(3-methoxy-4-(1H-pyrazol-4-yl)phenyl)-1H-1,2,4-triazol-5(4H)-one], 50 to 250 nM.
In the case of `CCc1cc(-n2nc(C)n(Cc3cc(F)ccc3F)c2=O)ccc1-c1cn[nH]c1` [Example 107, 4-(2,5-difluorobenzyl)-1-(3-ethyl-4-(1H-pyrazol-4-yl)phenyl)-3-methyl-1H-1,2,4-triazol-5(4H)-one] it was 50 to 250 nM; in that of `COc1cc(-c2cn[nH]c2)ccc1-n1c(C)nn(CCc2ccccc2)c1=O` [Example 77, 4-(2-methoxy-4-(1H-pyrazol-4-yl)phenyl)-3-methyl-1-phenethyl-1H-1,2,4-triazol-5(4H)-one], 250 to 2000 nM.

Values taken from patent publication US10562887B2, “Triazolones and tetrazolones as inhibitors of ROCK” (BRISTOL-MYERS SQUIBB COMPANY, priority 2016, dated 2020).
